The values below come from article PMC11428108 (Frontiers in Molecular Neuroscience, 2024).

“And” between values parts separate entries of the source, which are not always exact repeats. Equal entries are not always repeated. Where two headings read alike, the source gives them in different places.

By Cmax is commonly meant the maximum level reached in the sampled fluid or tissue. The term AUC(0-t) denotes exposure summed from dosing to a finite time, without extrapolation to infinity. Low readings indicate less exposure, high ones more exposure. A word on the Tmax: it is the time from dosing to the highest level.

A short description of data set [1]: Plasma pharmacokinetics after IV or PO administration. It is filed as in vivo, male C57BL/6J mice. How it is done:
Mice prepared with intravenous catheters and treated with SR9883 via oral (10 mg kg^−1) or intravenous (1 mg kg^−1) routes of administration. Blood samples were collected up to 240 min after treatment into lithium heparin coated tubes (Ram Scientific) and stored on wet ice. Blood samples were later centrifuged for 3 min at 5,000 RPM to separate plasma from red blood cells. Plasma was collected into a fresh tube and stored at −80°C. A separate group of mice was treated with SR9883 (20 mg kg^−1 PO) and killed by cervical dislocation 120 min later. Their brains were collected and stored at −80°C. SR9883 levels were quantified in plasma and brain by mass spectrometry using an ABSciex 5,500 instrument and using multiple reaction monitoring as previously described ([Radnai et al., 2021]). Brain samples were homogenized in saline and then immediately treated with twice the amount (v:v) of acetonitrile to extract the compound. Plasma samples were directly treated with acetonitrile. Samples were filtered through a 0.2 μm filter plate prior to injection onto the LC–MS/MS as previously described ([Radnai et al., 2021]).

The subject of data set [2] is male Wistar rats. As to the kind of experiment: Operant responding for food pellets (FR5TO20). It is filed as in vivo. The following applies: SR9883 10 mg kg^−1 IP, food-restricted rats; p = 0.9868. As for the experimental part:
Operant chambers (Med Associates, East Fairfield, VT, United States) were used to assess responding by rats for food pellets and intravenous nicotine infusions. […] All rats were food-restricted to maintain their body weight at approximately 85% that of free-feeding weights. They were then trained to press an active lever for 45 mg food pellets on a fixed ratio 5 time-out 20 s (FR5TO20) schedule of reinforcement. […] Rats responded for food rewards until a reliable responding was achieved, defined as >90 pellets earned per 60 min session across three consecutive sessions. […] Rats were anesthetized using 1–3% isoflurane inhalation in oxygen and catheters were implanted into the left jugular vein. […]
Concentration-response curves of SR9883 actions in nAChR-expressing HEK cells and oocytes were fitted to the Hill equation using a nonlinear least squares curve fit method and efficacy and potency values were calculated as previously described ([Wang et al., 2015]). […] For the ICSS threshold experiment, percentages of baseline reward threshold scores were calculated by expressing the absolute threshold scores as a percentage of the scores obtained during baseline. […] Response latency data were analyzed in the same manner as the threshold data. […] Effects of SR9883 on responding for food pellets in rats was analyzed by a two-tailed paired t test. […]

In data set [3] the test system is male C57BL/6J mice. As to the kind of experiment: Intracranial self-stimulation (ICSS) thresholds in mice with saline or nicotine osmotic minipumps. It is filed as in vivo. Particulars: SR9883 10 mg kg^−1 IP. The source says: Mice were anesthetized with a mixture of isoflurane (1–3%) and oxygen vapor then positioned in a stereotaxic frame in the flat-skull position (Kopf Instruments) ([Fowler et al., 2013]; [Johnson et al., 2008]). A stainless-steel bipolar electrode (Plastics One) was implanted into the lateral hypothalamus according to the following stereotaxic coordinates: Anterior/Posterior: −0.5 mm from bregma; […] Dorsal/Ventral: −5.0 mm from brain surface ([Fowler et al., 2013]; [Johnson et al., 2008]; [Paxinos and Franklin, 2001]). Mice were permitted 72 h to recover from surgery prior to training in the ICSS procedure. Mice were permitted to respond for intracranial electrical stimulation according to a modification of the discrete-trial current-threshold procedure developed by Kornetsky and colleagues ([Gill et al., 2004]), as previously described ([Fowler et al., 2013]; [Johnson et al., 2008]). […] The frequency of the stimulation was selected for each mouse so that current-intensity thresholds were within 25 to 400 μA, permitting threshold elevations and reductions to be reliably detected. This frequency for each mouse was held constant throughout the experiment. […] The time between the onset of the non-contingent stimulus and a positive response was recorded as the response latency. […] Effects of intraperitoneal injections of SR9883 on ICSS thresholds were assessed >7 days after minipump implantation. Concentration-response curves of SR9883 actions in nAChR-expressing HEK cells and oocytes were fitted to the Hill equation using a nonlinear least squares curve fit method and efficacy and potency values were calculated as previously described ([Wang et al., 2015]). […] For the ICSS threshold experiment, percentages of baseline reward threshold scores were calculated by expressing the absolute threshold scores as a percentage of the scores obtained during baseline. […] Response latency data were analyzed in the same manner as the threshold data. […] Effects of SR9883 on responding for food pellets in rats was analyzed by a two-tailed paired t test. […]

The mark [4] stands for this setting: male, C57BL/6J, mouse, IV 1 mg kg^−1, plasma, n = 3.
The mark [5] stands for this setting: male, C57BL/6J, mouse, PO 10 mg kg^−1, plasma, n = 3.

In data set [1] (IV 1 mg kg^−1, n = 3), `N#Cc1cccc(-n2nnc(-c3cccnc3)n2)c1` [SR9883, 3-(5-(pyridin-3-yl)-2H-tetrazol-2-yl)benzonitrile] displayed a Vss_obs of 2.72 ± 0.89 L/kg. Besides, the Cl_obs in data set [1] (PO 10 mg kg^−1, n = 3) worked out at 24.59 ± 2.42 mL/min/kg. For the same compound, the half-life in data set [1] (male, C57BL/6J, mouse, plasma, iv, 1 mg/kg, IV 1 mg kg^−1, as stated in text, read-out: plasma half-life (T½)) was approximately 53 min; in data set [1] (male, C57BL/6J, mouse, plasma, iv, 1 mg/kg, IV 1 mg kg^−1, plasma, n = 3, mean (S.E.M.), read-out: T1/2 (converted)), 52.8 ± 21.1 min; in data set [1] (male, C57BL/6J, mouse, plasma, other: intravenous and oral, after IV and oral administration, read-out: half-life), 50 to 60 min; in data set [1] (male, C57BL/6J, mouse, plasma, po, 10 mg/kg, PO 10 mg kg^−1, as stated in text, read-out: T½) it was approximately 64 min; in data set [1] (male, C57BL/6J, mouse, plasma, po, 10 mg/kg, PO 10 mg kg^−1, plasma, n = 3, mean (S.E.M.), read-out: T1/2 (converted)), 224 ± 36.6 min. In addition, the Cmax is ~775 ng/mL and ~3 µM in data set [1] (male, C57BL/6J, mouse, plasma, iv, 1 mg/kg, IV 1 mg kg^−1, plasma, n = 3); 1020 ± 60.6 ng/mL in data set [1] (male, C57BL/6J, mouse, plasma, po, 10 mg/kg, PO 10 mg kg^−1, plasma, n = 3). Further, the clearance in data set [1] (male, C57BL/6J, mouse, plasma, IV 1 mg kg^−1, n = 3, read-out: Cl_obs) is 45.7 ± 12.8 mL/min/kg. Moreover, the AUC(0-t) in data set [1] (setting [4]) came out at 1.77 ± 0.62 µM·h; in data set [1] (setting [5]), 21.1 ± 0.54 µM·h. For the same compound, the results for the Tmax in data set [1] (setting [4]) and in data set [1] (setting [5]) were 4.8 min and 64.8 ± 30.6 min, respectively. In addition, the “Food responding (food pellets earned)” value in data set [2] was “had no effect”. Also, the ICSS response latencies result in data set [3] (minipumps delivering either saline or nicotine) is on record as “had no effect”. Further, the ICSS thresholds entry in data set [3] (nicotine-delivering osmotic minipumps (24 mg kg^−1 per day), p = 0.0278 vs vehicle) was “elevated”; in data set [3] (saline-delivering osmotic minipumps), “had no effect”.
